Assay results taken from PMC6005341, “Identification of “sarsasapogenin-aglyconed” timosaponins as novel Aβ-lowering modulators of amyloid precursor protein processing” (Chemical Science, 2016).

Columns and labels:
β-secretase = molecular target: T1, β-secretase (Mus musculus, UniProt P56818); experiment: β-Secretase assay in N2A-APPswe cell protein extracts; type: biochemical
T1 construct: endogenous in cells; host or cells: N2A-APPswe (Neuro-2A stably expressing APP Swedish mutant)
Method: β-Secretase assays: Confluent N2A-APPswe cells were harvested and homogenized with 50
mM MES, pH5.5. Protein extracts (10 µg) were incubated with testing compounds or vehicle
for 1 h at room temperature. […]

Neuro-2A cells = experiment: Neurite outgrowth, type III β-tubulin immunostaining; type: cell-based; settings: at concentrations that lower Aβ production, 18 h
Method: Immunofluorescence examination of neurite outgrowth: Neuro-2A cells were seeded at 1×105 per glass bottom dishes. After treatment, cells were fixed with 4% paraformaldyde for 10 min, permeabilized with 0.1% Triton X-100, and then blocked with 1% BSA in PBS.
The cells were incubated with monoclonal antibody raised against type III β-tubulin (Sigma) for 1 h followed by Alexa488 conjugated secondary antibody. Neurite morphology was examined under fluorescence microscope. […]

[1] = system: APP processing in N2A-APPswe cells; experiment: Immunoblot of APP processing in N2A-APPswe cells; type: cell-based
Text: Reagents: All reagents were of analytical grade (purity > 98%) and were purchased from Sigma-Aldrich Chemical Co. unless otherwise specified. SSG (1) was purchased from Wako Pure Chemical Industries, Ltd. Diosgenin (6), Dioscin (9), Polyphyllin D (10), Timosaponin BI (22) and Timosaponin BII (23) were purchased from Chengdu Must Bio-Technology Co.
Ltd. Yamogenin (7) was bought from Ambinter c/o Greenpharma while Smilagenin (24) was bought from Steraloids Inc. Substances dissolved in DMSO as stock solutions. Cell culture medium constituents were purchased from Life Technologies, Inc.
Cell culture: Neuro-2A cells expressing Swedish mutants of APP (N2A-APPswe provided by Prof. Yifan Han, The Hong Kong Polytechnic University)1 was cultured in minimal essential medium with 2 mM glutamine, 2 mM pyruvate and 10% fetal bovine serum. Cells were seeded at 6-well plate at 1×106 cells/mL and grown for two days until confluence. […]
Immunoblot analysis: Cells were washed with phosphate buffered saline and lysed with buffer containing 50 mM Tris-Cl, pH 7.4, 150 mM NaCl, 1% Triton X-100 supplemented with protease inhibitors. Equal amount of proteins (30 µg) was resolved by 16.5% Tris-tricine gels and then transferred to nitrocellulose membrane with 0.2 µm pore size. For detection of secreted Aβ, sAPPα and  sAPPβ, cells were treated with the timosaponins for 8 h in complete medium which were then replaced with medium containing 0.1% FBS. After further incubation of 16 h, 50 µL of the conditioned medium was mixed with SDS sample buffer and resolved accordingly. The membrane was blocked with Tris-buffered saline containing 0.1% Tween 20 and 3% BSA and then incubated with primary antibodies at 4 °C overnight, followed with appropriate secondary antibodies for 2 h. The primary antibodies were: APP c-terminal rabbit antibody (1:5000; Merck Bioscience) for detection of full length APP and APP-CTFs, mouse monoclonal 6E10 (Covance) for secreted Aβ and sAPPα,  mouse monoclonal 6A1 (IBL) for sAPPβswe, ADAM-10 rabbit antibody (Millipore) and BACE1

[2] = system: animal models of dementia; design: method as in PMID 19426756, PMID 16226729, PMID 17566650; settings: oral administration; cited from earlier work
[3] = system: Aβ40 and Aβ38 in N2A-APPswe cells; experiment: Aβ40 and Aβ38 in conditioned medium of N2A-APPswe cells by ELISA; type: cell-based; settings: compared with Aβ42
Method: Aβ ELISA: Aβ concentrations in conditioned medium were assayed using ELISA kits for […]

Aβ42 levels in the brain = experiment: In vivo brain Aβ42 level by ELISA after oral dosing; settings: 100 mg kg^–1 oral gavage, three times in 2 days, 3–5 month old C57BL/6 mice
Method: was performed at least three times. The lowest binding scores were computed and the conformations of the corresponding binding pose presented.
Quantum mechanics/Molecular mechanics. The binding between transmembrane and substrate was further optimized using the QM/MM approach and NWChem software. The quantum part (QM) included TAIII (total 116 atoms), while the rest of the system was modelled as the molecular mechanics (MM) level. The QM region was treated at the DFT level using the B3LYP method. The 6-31G* Pople basis set was employed for all the atoms.
The transmembrane was described with the AMBER parm99 force field. The binding structure was solvated in a cubic box with 6872 classical SPC/E water molecules. Three negative counter ions (Cl-) were added to neutralize the charges in the system. The structure was optimized by performing the BFGS algorithm for the QM part and the steepest descent algorithm for the MM part. The optimization of these two regions (QM and MM) was alternated until self-consistency was reached.
Animal experiments: Male C57BL/6N mice were housed in environmentally controlled room (temperature: 25 ± 2 °C, humidity: 50 ± 5%, 12-h light-dark cycle) in Laboratory Animal Unit, The University of Hong Kong and were freely access to food and water. TAIII, TAI SSG and compound 34 were dissolved in 5% Tween 80 and given to the mice by oral gavage at three repeated doses of 100 mg/kg in 48 hours. Mice were administrated with 5% Tween 80 (control group), TAIII, TAI SSG and 34. The experimental procedures were performed with the approval of Committee of Use of Live Animal for Teaching and Research of The University of Hong Kong. Blood (about 600-800 µL) was collected by cardiac puncture and added with 1/10 volume of Na2EDTA (20 mg/mL) to prevent coagulation. After centrifugation at 3000 g for 15 min at 4 °C, plasma was transferred to a centrifuge tube. […] Both plasma and brain samples were stored at -80 °C until they were analyzed. The Aβ42 levels were determined by Wako High Sensitive Aβx-42 ELISA kit. […]

purified BACE1 = molecular target: T2, purified BACE1 (Homo sapiens, UniProt P56817); experiment: β-Secretase assay with purified BACE1; type: biochemical
T2 construct: purchased Millipore
Method: mM MES, pH5.5. Protein extracts (10 µg) were incubated with testing compounds or vehicle for 1 h at room temperature. The β-secretase activities were assayed by adding 10 µM fluorogenic β-secretase substrate (Millipore) to the reaction mixtures and the fluorescence (excitation, 380; emission, 460) were measured. β-Secretase assays were also performed using purified BACE1 (Millipore) at 100 ng in a buffer containing 50 mM MES, pH 5.5. […]

T1 sequence (P56818 46-501): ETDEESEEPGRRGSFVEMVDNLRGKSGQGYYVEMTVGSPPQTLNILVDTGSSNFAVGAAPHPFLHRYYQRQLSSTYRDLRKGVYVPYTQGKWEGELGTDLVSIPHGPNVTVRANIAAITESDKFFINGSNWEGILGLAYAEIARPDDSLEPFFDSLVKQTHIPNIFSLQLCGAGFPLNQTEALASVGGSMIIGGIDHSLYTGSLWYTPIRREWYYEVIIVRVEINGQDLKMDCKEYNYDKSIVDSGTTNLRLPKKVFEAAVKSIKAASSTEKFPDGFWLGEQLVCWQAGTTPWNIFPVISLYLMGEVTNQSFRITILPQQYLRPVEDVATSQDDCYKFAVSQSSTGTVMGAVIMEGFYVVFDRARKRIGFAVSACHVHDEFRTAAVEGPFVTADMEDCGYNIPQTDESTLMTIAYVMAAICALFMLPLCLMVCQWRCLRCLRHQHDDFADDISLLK
T2 sequence (P56817 46-501, species assumed): as the sequence (P56818 46-501) above, with S6P, I162V, I165L, T180S, A182V, V340I, A393L, H443Q counted along it

| Structure (SMILES) | β-secretase activities in the cell extracts (β-secretase) | neurite outgrowth (Neuro-2A cells) | sAPPα levels ([1]; 100 μM) | α-CTF and β-CTF expression ([1]; 100 μM) | memory dysfunction [2] | effect on Aβ40 and Aβ38 [3] | reduction of Aβ42 levels in the brain (Aβ42 levels in the brain) | expression of ADAM-10 [1] | expression of the β-secretase BACE1 [1] | α-secretase-cleaved CTF (C-83) and secreted APPα ([1]; 10 μM) | expression of full length APP ([1]; 18 h) | levels of β-secretase-cleaved CTF (C-99) and secreted APPβ ([1]; concentration-dependent) | activities of purified BACE1 (purified BACE1) |
| --- | --- | --- | --- | --- | --- | --- | --- | --- | --- | --- | --- | --- | --- |
| C[C@H]1CC[C@@]2(OC1)O[C@H]1C[C@H]3[C@@H]4CC[C@@H]5C[C@@H](O)CC[C@]5(C)[C@H]4CC[C@]3(C)[C@H]1[C@@H]2C [SSG (1), sarsasapogenin] | no change | markedly stimulated | marked increase | increased | improve |  |  |  |  |  |  |  |  |
| C[C@H]1CC[C@@]2(OC1)O[C@H]1C[C@H]3[C@@H]4CC[C@@H]5C[C@@H](O[C@@H]6O[C@H](CO)[C@H](O)[C@H](O)[C@H]6O)CC[C@]5(C)[C@H]4CC[C@]3(C)[C@H]1[C@@H]2C [TAI (3), timosaponin A I] |  |  |  |  |  | much smaller effect | 87% ± 14% |  |  |  |  |  |  |
| C[C@H]1CC[C@@]2(OC1)O[C@H]1C[C@H]3[C@@H]4CC[C@@H]5C[C@@H](O[C@@H]6O[C@H](CO)[C@H](O)[C@H](O)[C@H]6O[C@@H]6O[C@H](CO)[C@@H](O)[C@H](O)[C@H]6O)CC[C@]5(C)[C@H]4CC[C@]3(C)[C@H]1[C@@H]2C [TAIII (2), timosaponin A III] | did not affect |  |  |  | improve | much smaller effect | 83% ± 13% | did not alter | did not affect | increased | did not elicit a change | decreased | did not affect |
